The target of test [1] is T1, BRD4(1) protein (Homo sapiens, UniProt O60885).
T1 construct: BRD4(1) protein, 500 nM; inferred from the use of nickel acceptor beads
The test is described as follows: AlphaScreen assay: disruption of the interaction of BRD4(1) and biotinylated acetylated peptide. The note with it: BRD4(1) protein with H4KAc4-biotin peptide, 20° C. The format is binding. The method, then:
BRD4(1) protein, 500 nM; buffer, (10×) MOPS (500 mM), CHAPS (0.5 mM), NaF (500 mM), BSA (1 mg/mL), PH (7.4); streptavidin donor beads 50 μg/mL, nickel acceptor beads 50 μg/mL, BRD4(1) ligand, biotinylated SRC1-4 peptide, H4KAc4-botin (SGRG{Lys-Ac}GG{Lys-Ac}GLG{Lys-Ac}GGA{Lys-Ac} RHR{Lys(biotin)}) 50 nM.
The BRD4(1) protein and biotinylated SRC1-4 peptide were added in ddH2O and buffer. […] The reaction mixture was incubated at 20° C. in dark for 1 h. The reaction mixture (40 μL) was transferred to 384 well plates, and tested by PE Envison2104 multifunctional detection of microplate reader.
(Alpha assays give light when donor and acceptor beads are brought close together.)

Test [2] has as its target T1, BRD4(1) protein. The test can be described thus: TSA assay: thermodynamic stability of BRD4(1). Format: binding. The note with it: SYPRO Orange, 30° C. to 80° C. The method, then:
Activity test in vitro: the compounds of the present invention were conducted the TSA assay to determine the thermodynamic stability of BRD4(1).
BRD4(1) protein, 100 μM; compounds, 400 μM, buffer, (10×) MOPS (50 mM), NaCl (150 mM), glycerin 10%, PH (7.5); Sypro Orange Protein Gel Stain (500×). Mix system: BRD4(1) protein, 2 μL; Sypro Orange Protein Gel Stain (500×), 2 μL; compound, 10 μL; buffer, 2 μL; ddH2O, 2 μL, positive compound, (+)-JQ1.
The […] reaction mix was added to 96-well PCR plates. SYPRO Orange (Sigma) was added as a fluorescence probe at a dilution of 1:1000 and incubated with compounds on ice for 30 min. The total DMSO concentration was less than 2%. The TSA was carried out using the Bio-Rad CFX96 Real-Time PCR System. The temperature was raised at a step of 0.5° C. per minute from 30° C. to 80° C. The fluorescence readings were recorded at a 0.5° C. interval, and obtained the ΔTm.

Usually IC50 stands for the concentration at which inhibition is half-maximal.

`CN1C(=O)c2cccc3c(S(=O)(=O)NC4CCCCC4)ccc1c23` [Example 110, N-cyclohexyl-1-methyl-2-oxo-1,2-dihydrobenzo[cd]indole-6-sulfonamide] registered an IC50 against BRD4(1) protein [1] greater than 20 µM. Moreover, the “TSA ΔTm” value at BRD4(1) protein [2] worked out at 1 °C.
`CCN1C(=O)c2cccc3c(S(=O)(=O)NCc4ccccc4F)ccc1c23` [Example 69, 1-ethyl-N-(2-fluorobenzyl)-2-oxo-1,2-dihydrobenzo[cd]indole-6-sulfonamide]: it took 13.9 µM to reach half-maximal inhibition against BRD4(1) protein [1] (IC50). Further, the “TSA ΔTm” value at BRD4(1) protein [2] is 3.5 °C.
Consider `CCN1C(=O)c2cccc3c(NS(=O)(=O)CC)ccc1c23` [Example 11, N-(1-ethyl-2-oxo-1,2-dihydrobenzo[cd]indol-6-yl)ethanesulfonamide], for which the IC50 against BRD4(1) protein [1] was 2.08 µM. Also, the “TSA ΔTm” value on BRD4(1) protein [2] was determined as 5.5 °C.
The corresponding values for `CCN1C(=O)c2cccc3c(S(=O)(=O)NC4CCN(C(=O)OC(C)(C)C)C4)ccc1c23` (centres unmarked) [Example 84, tert-butyl 3-(1-ethyl-2-oxo-1,2-dihydrobenzo[cd]indole-6-sulfonamido)pyrrolidine-1-carboxylate] are 4.1 µM and 3.5 °C.
Compound `CCN1C(=O)c2cccc3c(NS(=O)(=O)c4cccc(C(=O)OC)c4)ccc1c23` [Example 27, methyl 3-(N-(1-ethyl-2-oxo-1,2-dihydrobenzo[cd]indol-6-yl)sulfamoyl)benzoate] had an IC50 at BRD4(1) protein [1] of 3.13 µM. Moreover, the “TSA ΔTm” value at BRD4(1) protein [2] turned out to be 4.2 °C.
For `CCN1C(=O)c2cccc3c(NS(=O)(=O)c4ccc(C(F)(F)F)cc4)ccc1c23` [Example 22, N-(1-ethyl-2-oxo-1,2-dihydrobenzo[cd]indol-6-yl)-4-(trifluoromethyl)benzenesulfonamide] the same measures were 2.56 µM and 5.7 °C.
In the case of `CCN1C(=O)c2cccc3c(S(=O)(=O)NCC4CC(C(C)C)=NO4)ccc1c23` (centres unmarked) [Example 65, 1-ethyl-N-((3-isopropyl-4,5-dihydroisoxazol-5-yl)methyl)-2-oxo-1,2-dihydrobenzo[cd]indole-6-sulfonamide], at BRD4(1) protein [1], half-maximal inhibition (IC50) required 20.7 µM. In addition, the “TSA ΔTm” value at BRD4(1) protein [2] worked out at 2.5 °C.
For `CCN1C(=O)c2cccc3c(S(=O)(=O)NCCCCNC(=O)OC(C)(C)C)ccc1c23` [Example 82, tert-butyl(4-(1-ethyl-2-oxo-1,2-dihydrobenzo[cd]indole-6-sulfonamido)butyl)carbamate] the same measures were 1.16 µM and 6.2 °C.
`CCN1C(=O)c2cccc3c(NCc4ccc(Cl)cc4)ccc1c23` [Example 61, 6-((4-chlorobenzyl)amino)-1-ethylbenzo[cd]indol-2(1H)-one] displayed an IC50 on BRD4(1) protein [1] greater than 20 µM. In addition, the “TSA ΔTm” value at BRD4(1) protein [2] stood at 2 °C.
The corresponding values for `CCN1C(=O)c2cccc3c(NC(=O)Cc4ccc(Cl)cc4)ccc1c23` [Example 47, 2-(4-chlorophenyl)-N-(1-ethyl-2-oxo-1,2-dihydrobenzo[cd]indol-6-yl)acetamide] are greater than 20 µM and 0 °C.
Turning to `CCN1C(=O)c2cccc3c(S(=O)(=O)NC4CCCCCC4)ccc1c23` [Example 107, N-cycloheptyl-1-ethyl-2-oxo-1,2-dihydrobenzo[cd]indole-6-sulfonamide], the IC50 against BRD4(1) protein [1] amounted to 0.45 µM. Further, on BRD4(1) protein [2], the “TSA ΔTm” value came out at 7 °C.
On to `CCN1C(=O)c2cccc3c(S(=O)(=O)NC4CNC4)ccc1c23` [Example 88, N-(azetidin-3-yl)-1-ethyl-2-oxo-1,2-dihydrobenzo[cd]indole-6-sulfonamide], for which the 50% inhibitory concentration (IC50) against BRD4(1) protein [1] was greater than 20 µM. In addition, at BRD4(1) protein [2], the “TSA ΔTm” value was found to be 0.5 °C.
In turn, `CCN1C(=O)c2cccc3c(NS(=O)(=O)Cc4ccc(Cl)cc4)ccc1c23` [Example 43, 1-(4-chlorophenyl)-N-(1-ethyl-2-oxo-1,2-dihydrobenzo[cd]indol-6-yl)methanesulfonamide] returned an IC50 against BRD4(1) protein [1] of 4.81 µM. Besides, the “TSA ΔTm” value at BRD4(1) protein [2] is 3.6 °C.
On to `CCN1C(=O)c2cccc3c(NC(=O)c4ccc(F)cc4)ccc1c23` [Example 46, N-(1-ethyl-2-oxo-1,2-dihydrobenzo[cd]indol-6-yl)-4-fluorobenzamide], for which the IC50 at BRD4(1) protein [1] was greater than 20 µM. At BRD4(1) protein [2], the “TSA ΔTm” value is 3 °C.
Consider `CCN1C(=O)c2cccc3c(NS(=O)(=O)c4ccc(C(=O)OC)cc4)ccc1c23` [Example 25, Methyl 4-(N-(1-ethyl-2-oxo-1,2-dihydrobenzo[cd]indol-6-yl)sulfamoyl)benzoate], for which 8.17 µM corresponded to half-maximal inhibition at BRD4(1) protein [1] (IC50). At BRD4(1) protein [2], the “TSA ΔTm” value was 4.2 °C.
The corresponding values for `CCN1C(=O)c2cccc3c(S(=O)(=O)NC4CN(C(=O)OC(C)(C)C)C4)ccc1c23` [Example 85, tert-butyl 3-(1-ethyl-2-oxo-1,2-dihydrobenzo[cd]indole-6-sulfonamido)azetidine-1-carboxylate] are 4.84 µM and 3.4 °C.
The corresponding values for `CCN1C(=O)c2cccc3c(NC(=O)CCc4ccccc4)ccc1c23` [Example 50, N-(1-ethyl-2-oxo-1,2-dihydrobenzo[cd]indol-6-yl)-3-phenylpropanamide] are greater than 20 µM and 1 °C.
For the compound `CCN1C(=O)c2cccc3c(NS(=O)(=O)c4ccc(C)cc4)ccc1c23` [Example 18, N-(1-ethyl-2-oxo-1,2-dihydrobenzo[cd]indol-6-yl)-4-methylbenzenesulfonamide], half-maximal inhibition against BRD4(1) protein [1] (IC50) was put at 0.56 µM. Further, the “TSA ΔTm” value on BRD4(1) protein [2] was 9.0 °C.
Take `CCN1C(=O)c2cccc3c(S(=O)(=O)NCC4(C)CC(C)=NO4)ccc1c23` (centres unmarked) [Example 66, N-((3,5-dimethyl-4,5-dihydroisoxazol-5-yl)methyl)-1-ethyl-2-oxo-1,2-dihydrobenzo[cd]indole-6-sulfonamide]: 5.9 µM corresponded to half-maximal inhibition at BRD4(1) protein [1] (IC50). Also, at BRD4(1) protein [2], the “TSA ΔTm” value came out at 4 °C.
Turning to `CC(C)CN1C(=O)c2cccc3c(S(=O)(=O)NC4CCCCC4)ccc1c23` [Example 117, N-cyclohexyl-1-isobutyl-2-oxo-1,2-dihydrobenzo[cd]indole-6-sulfonamide], the IC50 at BRD4(1) protein [1] was greater than 20 µM. For the same compound, the “TSA ΔTm” value on BRD4(1) protein [2] was 0 °C.
The corresponding values for `CCN1C(=O)c2cccc3c(NC(=O)Cc4ccc(Cl)cc4Cl)ccc1c23` [Example 49, 2-(2,4-dichlorophenyl)-N-(1-ethyl-2-oxo-1,2-dihydrobenzo[cd]indol-6-yl)acetamide] are greater than 20 µM and 0 °C.
For `CCN1C(=O)c2cccc3c(NS(=O)(=O)c4cc(Cl)cc(Cl)c4)ccc1c23` [Example 34, 3,5-dichloro-N-(1-ethyl-2-oxo-1,2-dihydrobenzo[cd]indol-6-yl)benzenesulfonamide] the same measures were greater than 20 µM and 2.4 °C.
Turning to `CCN1C(=O)c2cccc3c(NS(=O)(=O)c4cc(Cl)ccc4OC)ccc1c23` [Example 4, 5-chloro-N-(1-ethyl-2-oxo-1,2-dihydrobenzo[cd]indol-6-yl)-2-methoxybenzenesulfonamide], 0.52 µM corresponded to half-maximal inhibition at BRD4(1) protein [1] (IC50). The “TSA ΔTm” value at BRD4(1) protein [2] was 8.5 °C.
The corresponding values for `CCCNS(=O)(=O)c1ccc2c3c(cccc13)C(=O)N2CC` [Example 100, 1-ethyl-2-oxo-N-propyl-1,2-dihydrobenzo[cd]indole-6-sulfonamide] are 0.31 µM and 9 °C.
As to `CCN1C(=O)c2cccc3c(S(=O)(=O)NC4CCN(C(C)=O)CC4)ccc1c23` [Example 70, N-(1-acetylpiperidin-4-yl)-1-ethyl-2-oxo-1,2-dihydrobenzo[cd]indole-6-sulfonamide], on BRD4(1) protein [1], half-maximal inhibition (IC50) was put at 7.55 µM. Moreover, the “TSA ΔTm” value at BRD4(1) protein [2] worked out at 3.5 °C.
